The values that follow come from patent US8461328B2, “Tricyclic heterocyclic compounds, compositions and methods of use thereof” (Genentech, Inc., priority 2010, dated 2013).

Common to all, as to type: biochemical
One experiment deals with T1, JAK2 (Homo sapiens, UniProt O60674).
T1 construct: made in house; host or cells: SF9 insect cells (baculovirus)
The experiment is described as follows: JAK2 inhibition (Table 4). As to conditions: read-out: JAK2 Ki.

Another experiment has as its target T2, JAK3 (Homo sapiens, UniProt P52333).
T2 construct: made in house; host or cells: SF9 insect cells (baculovirus)
The experiment is described as follows: JAK3 inhibition (Table 4). As to conditions: read-out: JAK3 Ki.

A further experiment deals with T3, JAK1 (Homo sapiens, UniProt P23458).
T3 construct: made in house; host or cells: SF9 insect cells (baculovirus)
The experiment is described as follows: JAK1 inhibition (Table 4). As to conditions: read-out: JAK1 Ki.

Another experiment addresses T4, TYK2 (Homo sapiens, UniProt P29597).
T4 construct: made in house; host or cells: SF9 insect cells (baculovirus)
T4 sequence (P29597 873-1187): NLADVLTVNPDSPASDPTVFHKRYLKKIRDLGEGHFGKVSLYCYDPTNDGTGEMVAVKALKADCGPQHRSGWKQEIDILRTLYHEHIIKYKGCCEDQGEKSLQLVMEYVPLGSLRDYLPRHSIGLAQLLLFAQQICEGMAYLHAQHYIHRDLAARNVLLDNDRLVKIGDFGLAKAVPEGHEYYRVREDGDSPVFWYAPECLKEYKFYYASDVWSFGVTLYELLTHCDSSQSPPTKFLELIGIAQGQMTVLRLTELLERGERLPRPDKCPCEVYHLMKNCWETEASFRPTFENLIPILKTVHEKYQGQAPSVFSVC
The experiment is described as follows: TYK2 inhibition (Table 4).

T1 sequence (O60674 812-1132): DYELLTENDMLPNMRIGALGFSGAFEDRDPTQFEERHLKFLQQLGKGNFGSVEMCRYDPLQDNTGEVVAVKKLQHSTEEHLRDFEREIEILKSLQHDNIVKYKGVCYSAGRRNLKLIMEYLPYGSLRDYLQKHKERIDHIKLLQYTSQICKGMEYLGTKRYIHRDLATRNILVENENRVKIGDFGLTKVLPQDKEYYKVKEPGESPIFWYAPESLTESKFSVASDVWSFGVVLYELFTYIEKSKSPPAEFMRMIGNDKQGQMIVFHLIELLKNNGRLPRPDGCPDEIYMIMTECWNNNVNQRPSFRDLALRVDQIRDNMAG
T3 sequence (P23458 852-1154): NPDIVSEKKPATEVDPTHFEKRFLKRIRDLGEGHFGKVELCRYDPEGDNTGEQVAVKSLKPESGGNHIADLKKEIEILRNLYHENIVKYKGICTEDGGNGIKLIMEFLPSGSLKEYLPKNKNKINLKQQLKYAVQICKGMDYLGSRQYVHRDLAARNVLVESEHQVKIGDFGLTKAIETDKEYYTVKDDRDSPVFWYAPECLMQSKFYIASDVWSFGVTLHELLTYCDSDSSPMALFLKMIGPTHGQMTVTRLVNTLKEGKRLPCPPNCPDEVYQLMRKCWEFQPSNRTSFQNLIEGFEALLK
T2 sequence (P52333 783-1124): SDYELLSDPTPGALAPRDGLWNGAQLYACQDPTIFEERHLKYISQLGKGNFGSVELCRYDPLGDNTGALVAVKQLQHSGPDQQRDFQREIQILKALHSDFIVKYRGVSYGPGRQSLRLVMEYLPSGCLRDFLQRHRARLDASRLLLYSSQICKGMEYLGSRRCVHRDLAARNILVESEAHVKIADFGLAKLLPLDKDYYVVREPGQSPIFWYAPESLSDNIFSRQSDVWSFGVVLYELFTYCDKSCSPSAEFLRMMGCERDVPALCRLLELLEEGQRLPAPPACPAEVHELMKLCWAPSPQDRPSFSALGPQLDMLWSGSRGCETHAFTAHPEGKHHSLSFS

The term Ki denotes the equilibrium dissociation constant of an inhibitor or competing ligand from its target. As to `CS(=O)(=O)NCCc1nc2cnc3[nH]ccc3c2n1[C@@H]1CCCOC1` [Example 862, (R)—N-{2-[1-(Tetrahydro-pyran-3-yl)-1,6-dihydro-1,3,5,6-tetraaza-as-indacen-2-yl]-ethyl}-methanesulfonamide], the Ki was determined as 437 nM at JAK2, 445 nM at JAK3, 49.5 nM on JAK1 and 994 nM on TYK2.
For `O=C(NCCc1nc2cnc3[nH]ccc3c2n1[C@@H]1CCCOC1)C1CC1` [Example 863, (R)-Cyclopropanecarboxylic acid {2-[1-(tetrahydro-pyran-3-yl)-1,6-dihydro-1,3,5,6-tetraaza-as-indacen-2-yl]-ethyl}-amide], the Ki on JAK2 came out at 828 nM; on JAK3, 1240 nM; at JAK1 it was 67.2 nM; on TYK2, 2020 nM.
On the same counts, the results for `OCCc1nc2cnc3[nH]ccc3c2n1[C@@H]1CCCOC1` [Example 864, (R)-2-[1-(Tetrahydro-pyran-3-yl)-1,6-dihydro-1,3,5,6-tetraaza-as-indacen-2-yl]-ethanol] are 235 nM, 305 nM, 71.7 nM and 286 nM.
For `CC(=O)NCCc1nc2cnc3[nH]ccc3c2n1[C@@H]1CCCOC1` [Example 865, (R)—N-{2-[1-(Tetrahydro-pyran-3-yl)-1,6-dihydro-1,3,5,6-tetraaza-as-indacen-2-yl]-ethyl}-acetamide] the same measures were 566 nM, 717 nM, 87.8 nM and 1270 nM.
For `C[C@@H](O)c1nc2cnc3[nH]ccc3c2n1C1CCCC1` [Example 867, (R)-1-(1-Cyclopentyl-1,6-dihydro-1,3,5,6-tetraaza-as-indacen-2-yl)-ethanol] the same measures were 96.5 nM, 119 nM, 3.58 nM and 26.6 nM.
For the compound `CCN1CC[C@@H](n2c([C@@H](C)O)nc3cnc4[nH]ccc4c32)[C@@H](F)C1` [Example 868, (R)-1-[1-((3S,4R)-1-Ethyl-3-fluoro-piperidin-4-yl)-1,6-dihydro-1,3,5,6-tetraaza-as-indacen-2-yl]-ethanol], the Ki at JAK2 was determined as 148 nM; on JAK3 it was 119 nM; at JAK1, 7.07 nM; at TYK2 it was 149 nM.
On the same counts, the results for `C#CCCN1CCC(n2c([C@@H](C)O)nc3cnc4[nH]ccc4c32)CC1` [Example 871, (R)-1-[1-(1-But-3-ynyl-piperidin-4-yl)-1,6-dihydro-1,3,5,6-tetraaza-as-indacen-2-yl]-ethanol] are 290 nM, 177 nM, 59.7 nM and 1170 nM.
`C[C@@H](O)c1nc2cnc3[nH]ccc3c2n1C1CCN(CCF)CC1` [Example 873, (R)-1-{1-[1-(2-Fluoro-ethyl)-piperidin-4-yl]-1,6-dihydro-1,3,5,6-tetraaza-as-indacen-2-yl}-ethanol]: the Ki at JAK2 stood at 124 nM; at JAK3 it was 72.7 nM; on JAK1, 20.7 nM; at TYK2 it was 422 nM.
Consider `C[C@@H](O)c1nc2cnc3[nH]ccc3c2n1C1CCNCC1F` (stereo partly drawn) [Example 877, (R)-1-[1-(3-Fluoro-piperidin-4-yl)-1,6-dihydro-1,3,5,6-tetraaza-as-indacen-2-yl]-ethanol], for which the Ki stood at 37.8 nM at JAK2, 10.6 nM on JAK3, 1.69 nM at JAK1 and 10.9 nM at TYK2.
For `O[C@@H](c1nc2cnc3[nH]ccc3c2n1C1CCCCC1)C(F)(F)F` [Example 878, (S)-1-(1-Cyclohexyl-1,6-dihydro-1,3,5,6-tetraaza-as-indacen-2-yl)-2,2,2-trifluoro-ethanol] the same measures were 43.7 nM, 13.6 nM, 1.8 nM and 11.8 nM.
`C[C@@H](O)c1nc2cnc3[nH]ccc3c2n1C1CCOCC1` [Example 881, (R)-1-[1-(Tetrahydro-pyran-4-yl)-1,6-dihydro-1,3,5,6-tetraaza-as-indacen-2-yl]-ethanol]: the Ki on JAK2 was 280 nM; on JAK3, 90.6 nM; on JAK1, 26.4 nM; at TYK2, 59.7 nM.
On the same counts, the results for `C[C@@H](O)c1nc2cnc3[nH]ccc3c2n1N1CCCCC1` [Example 882, (R)-1-(1-Piperidin-1-yl-1,6-dihydro-1,3,5,6-tetraaza-as-indacen-2-yl)-ethanol] are 51.6 nM, 72.6 nM, 3.56 nM and 10.6 nM.
As to `CC(C)CC(=O)NC1CCC(n2nnc3cnc4[nH]ccc4c32)CC1` (stereo not shown) [Example 883, 3-Methyl-N-[4-(6H-1,2,3,5,6-pentaaza-as-indacen-1-yl)-cyclohexyl]-butyramide], the Ki on JAK2 stood at 15.8 nM; at JAK3 it was 89.3 nM; at JAK1, 4.61 nM; on TYK2, 244 nM.
For `O=C(NC1CCC(n2cnc3cnc4[nH]ccc4c32)CC1)c1cccnc1` (stereo not shown) [Example 884, N-[4-(6H-1,3,5,6-Tetraaza-as-indacen-1-yl)-cyclohexyl]-nicotinamide] the same measures were 6.39 nM, 86.3 nM, 5.17 nM and 44 nM.
On to `Cc1nc2cnc3[nH]ccc3c2n1[C@@H]1CCCC(=O)C1` [Example 885, (R)-3-(2-Methyl-6H-1,3,5,6-tetraaza-as-indacen-1-yl)-cyclohexanone], for which the Ki on JAK2 is 23.8 nM; on JAK3 it was 47.8 nM; at JAK1, 6.16 nM; on TYK2, 33 nM.
For `Cc1nc2cnc3[nH]ccc3c2n1[C@H]1CCC[C@](C)(O)C1` [Example 886, (1S,3S)-1-Methyl-3-(2-methyl-6H-1,3,5,6-tetraaza-as-indacen-1-yl)-cyclohexanol] the same measures were 16.7 nM, 41.7 nM, 10.3 nM and 52.8 nM.
Take `COCC(=O)NC1CCC(n2cnc3cnc4[nH]ccc4c32)CC1` (stereo not shown) [Example 887, 2-Methoxy-N-[4-(6H-1,3,5,6-tetraaza-as-indacen-1-yl)-cyclohexyl]-acetamide]: the Ki at JAK2 was 23.9 nM; at JAK3, 193 nM; on JAK1 it was 11.1 nM; at TYK2, 79 nM.
For `Cc1nc2cnc3[nH]ccc3c2n1[C@H]1CCC[C@@](C)(O)C1` [Example 888, (1R,3S)-1-Methyl-3-(2-methyl-6H-1,3,5,6-tetraaza-as-indacen-1-yl)-cyclohexanol] the same measures were 17.7 nM, 14 nM, 12.8 nM and 40.9 nM.
For `COC1CCCC(n2c(C)nc3cnc4[nH]ccc4c32)C1` (stereo not shown) [Example 889, 1-(3-Methoxy-cyclohexyl)-2-methyl-1,6-dihydro-1,3,5,6-tetraaza-as-indacene] the same measures were 337 nM, 335 nM, 36.2 nM and 96.5 nM.
Take `Cc1nc2cnc3[nH]ccc3c2n1[C@@H]1CCC[C@](C)(O)C1` [Example 890, (1S,3R)-1-Methyl-3-(2-methyl-6H-1,3,5,6-tetraaza-as-indacen-1-yl)-cyclohexanol]: the Ki was 38.1 nM at JAK2, 36.9 nM at JAK3, 37.6 nM on JAK1 and 133 nM on TYK2.
For `C[C@@H](O)c1nc2cnc3[nH]ccc3c2n1N1CCOCC1` [Example 891, (R)-1-(1-Morpholin-4-yl-1,6-dihydro-1,3,5,6-tetraaza-as-indacen-2-yl)-ethanol] the same measures were 543 nM, 240 nM, 65 nM and 165 nM.
For `Cc1nc2cnc3[nH]ccc3c2n1[C@@H]1CCC[C@@](C)(O)C1` [Example 892, (1R,3R)-1-Methyl-3-(2-methyl-6H-1,3,5,6-tetraaza-as-indacen-1-yl)-cyclohexanol] the same measures were 145 nM, 130 nM, 82.1 nM and 114 nM.
Consider `C[C@@H](O)c1nc2cnc3[nH]ccc3c2n1[C@H]1CCN(CCC#N)C1` [Example 893, 3-{(S)-3-[2-((R)-1-Hydroxy-ethyl)-6H-1,3,5,6-tetraaza-as-indacen-1-yl]-pyrrolidin-1-yl}-propionitrile], for which the Ki on JAK2 was determined as 49.2 nM; on JAK3, 60.7 nM; at JAK1, 4.9 nM; on TYK2 it was 9.49 nM.
On the same counts, the results for `Cc1cc(CN2CCC(n3c(C(C)O)nc4cnc5[nH]ccc5c43)C(F)C2)on1` (stereo not shown) [Example 895, 1-{1-[3-Fluoro-1-(3-methyl-isoxazol-5-ylmethyl)-piperidin-4-yl]-1,6-dihydro-1,3,5,6-tetraaza-as-indacen-2-yl}-ethanol] are 19.1 nM, 3.34 nM, 1.27 nM and 99.1 nM.
On the same counts, the results for `C[C@@H](O)c1nc2cnc3[nH]ccc3c2n1C1CCN(Cc2ccn[nH]2)CC1` [Example 896, (R)-1-{1-[1-(2H-Pyrazol-3-ylmethyl)-piperidin-4-yl]-1,6-dihydro-1,3,5,6-tetraaza-as-indacen-2-yl}-ethanol] are 21.4 nM, 6.89 nM, 1.72 nM and 56.7 nM.
